# “And” between values parts separate entries of the source, which are not always exact repeats. Identical values can stand only once. “Also recorded” adds a separate entry of the source.
# Experiments:
# [1] = system: specific antibody titres against Haemophilus influenzae, Tetanus and Pneumococcal capsular polysaccharide; parameters: species or system human; settings: in vivo
# [2] = system: Immunoglobulin levels (IgG, IgA and IgM); test: Referred clozapine patients (Immunology clinic): serum immunoglobulins; format: in vivo, human
# [3] = system: IgG to Haemophilus influenza B, Pneumococcus and Tetanus; settings: human, in vivo
# [4] = system: bone marrow B cell subsets; test: Wild type mouse study: bone marrow B cell immunophenotyping by flow cytometry; format: in vivo, C57BL/6 mice
# [5] = system: splenic B cell and T cell populations; test: Wild type mouse study: spleen immunophenotyping by flow cytometry; format: in vivo, C57BL/6 mice
# [6] = system: circulating immunoglobulins; test: Wild type mouse study: circulating immunoglobulin profile by ELISA; format: in vivo, C57BL/6 mice; settings: FIG. 24
# [7] = treatment-resistant schizophrenia; cited from earlier work
# [8] = 13 referred patients on clozapine
# [9] = 13 referred patients, clozapine 200-750 mg, duration >4 to 21 years (two had stopped), one line per patient
smiles,measurement,setting,value
"CN1CCN(C2=Nc3cc(Cl)ccc3Nc3ccccc32)CC1 [Clozapine, clozapine]",% of patients with IgG-Haemophilus B <1.0 mcg/ml (below protective level),[1],51% and 51.2% and 51.1% and 49.4% and 50.9%
same,% of patients with IgG-Pneumococcus <35 mg/L,[1],39.0% and 38.3% and 37.9% and 45.6%
same,% of patients with IgG-Pneumococcus <50 mg/L (below protective level),[1],52.1% and 50.6% and 54.4%
same,% of patients with IgG-Tetanus <0.1 IU/ml (below protective level),[1],10.6% and 11.5% and 12.3%
same,IgM-Pneumococcus,[1],58.5 U/L and 59.8 U/L and 60.4 U/L and 61.6 U/L
same,Pneumococcal IgA level,[1],31 U/ml
same,Pneumococcal IgM level,[1],58.5 U/ml
same,pneumococcal IgA level,[1],31.0 U/L
same,"mean IgA, referred patients",[2]; [8],0.34 g/L
same,"mean IgG, referred patients",[2]; [8],3.6 g/L
same,"mean IgM, referred patients",[2]; [8],0.21 g/L
same,"serum IgA, individual referred patients",[2]; [9],IgA 0.54 g/L and <0.22 g/L (6×) and IgA 0.49 g/L and IgA 0.38 g/L and undetect- and IgA 0.26 g/L and IgA 0.81 g/L and IgA 0.63 g/L
same,"serum IgG, individual referred patients",[2]; [9],IgG 4.8 g/L and <1.34 g/L (2×) and IgG 5.24 g/L and IgG 2.68 g/L and IgG 2.98 g/L and IgG 1.2 g/L and IgG 3.3 g/L and IgG 2.38 g/L and IgG 4.24 g/L and IgG 6.65 g/L and IgG 5.61 g/L and IgG 4.79 g/L
same,"serum IgM, individual referred patients",[2]; [9],IgM 0.3 g/L and <0.17 g/L (7×) and 0.41 g/L (2×) and 0.23 g/L and 0.07 g/L and 0.18 g/L
same,"serum IgG, individual referred patients","[2]; 13 referred patients, clozapine 200-750 mg, duration >4 to 21 years (two had stopped), one line per patient, listed as clozapine",3.3 g/L
same,serum IgG post-discontinuation of clozapine,"[2]; FIG. 5, gradual recovery over 3 years",5.95 g/L
same,serum IgG at discontinuation of clozapine,"[2]; FIG. 5, start of recovery",3.5 g/L
same,IgA and IgM following cessation of clozapine,[2]; FIG. 5 / one patient over 24 months,without clear improvement; also recorded: remained low
same,serum IgM after stopping clozapine,"[2]; one patient, 24 months after clozapine cessation",0.49 after 24 months
same,"serum IgG after stopping clozapine, intermediate value","[2]; one patient, within 24 months after cessation",4.8 g/L
same,individuals failing to develop a pneumococcal IgG response above 50 mg/L,[3],73%
same,individuals failing to exceed 0.1 IU/mL post-vaccination Tetanus-IgG level,[3],1/12
same,individuals failing to mount a Haemophilus-IgG response of at least 1 mcg/ml,[3],42%
same,patients with IgG to Haemophilus influenza B (HiB) <1 mcg/ml,[3],75%
same,patients with Pneumococcus-IgG <50 mg/L,[3],94%
same,patients with Tetanus-IgG <0.1 IU/mL,[3],38%
same,patients with impaired responses to vaccination,[3],10/11
same,"vaccine response, individual referred patients",[3],Failure to responds to; also recorded: Non-durable
same,pro-B cell fraction in bone marrow,"[4]; 10 mg/kg IP, 21 days, FIG. 18",without any change
same,proportion of pre-pro B cells in bone marrow,"[4]; 10 mg/kg IP, 21 days, FIG. 18",significant increase
same,reduction in the percentage of long-lived plasma cells in the bone marrow compared to control,"[4]; 5 and 10 mg/kg IP, 21 days, significant, FIG. 20",~30%
same,percentage of immature B cells in bone marrow,"[4]; IP 21 days, FIG. 19",reduction
same,overall B cells in the bone marrow,"[4]; any dose (2.5, 5, 10 mg/kg IP, 21 days), FIG. 18",No overall reduction
same,pre-B cells in bone marrow,"[4]; dose-dependent, significant vs control from 2.5 mg/kg, IP 21 days, FIG. 19",reduction
same,percentage of proliferating pre-B cells in bone marrow,"[4]; reaching significance for the 5 mg/kg dose, FIG. 19",diminished
same,percentage of splenic B cells (B220+TCR-beta-) of total live splenocytes,"[5]; 5 mg/kg and 10 mg/kg IP, 21 days, FIG. 21",significantly lower percentage
same,other splenic cell populations (B220-TCR-beta-),[5]; FIG. 21,No effect
same,percentage of splenic T cells,[5]; FIG. 21,reciprocal increase
same,splenic follicular B cell subset,[5]; FIG. 22,no specific reductions
same,splenic marginal zone B cell subset,[5]; FIG. 22,no specific reductions
same,proportion of T2 B cells in the spleen,"[5]; across all doses, FIG. 22",small increase
same,activated T cells (B220+TCR-beta+) in spleen vs control,"[5]; clozapine 2.5-10 mg/kg, haloperidol 1 mg/kg, IP 21 days, FIG. 21",reduced in dose-dependent fashion
same,transitional stage 1 (T1) B cells in the spleen,"[5]; including at the 2.5 mg/kg dose, FIG. 22",mildly reduced proportion
same,germinal centre cells in the spleen vs control or haloperidol,"[5]; steady state, FIG. 22",no differences observed
same,other circulating immunoglobulin isotype classes,[6],No other isotype classes were affected
same,circulating IgA levels compared to control,"[6]; clozapine 5 and 10 mg/kg, haloperidol 1 mg/kg, IP 21 days",reduction
same,previously treatment refractive patients in whom effective,[7],approximately 60%

# Source: patent publication US20210137941A1 (ZARODEX THERAPEUTICS LIMITED, priority 2018, published 2021)
